Laboratory results from ChEMBL document CHEMBL3885861, “Open TG-GATES”.

Species: Rattus norvegicus
Test: Open TG-GATES - Regimen: Single
Assay type: toxicity, organism-based, Sprague-Dawley
Parameters: regimen Single, gender Male, age 6 weeks
Conditions: in vivo, po, route gavage; for APTT / Bas / Eos / Fbg / Hb / Ht / Lym / MCH / MCHC / Mono / Neu / Plat / RBC / Ret / WBC: tissue Blood; for KIDNEY_L / KIDNEY_R / KIDNEY_TOTAL: tissue Kidney; for LIVER: tissue Liver; for ALP / ALT / AST / BUN / CRE / Ca / Cl / DBIL / GLC / IP / K / LDH / Na / PL / RALB / TBIL / TC / TG / TP / gamma-GTP: tissue Plasma
[1] = 0 mg/kg, 3 h, dose level Control
[2] = 0 mg/kg, 6 h, dose level Control
[3] = 0 mg/kg, 9 h, dose level Control
[4] = 0 mg/kg, 24 h, dose level Control

## O=C(CCCN1CCC(O)(c2ccc(Cl)cc2)CC1)c1ccc(F)cc1 [HALOPERIDOL]
[1]
  TERMINAL_BW: 208.8 g
  APTT: 16.5 s
  Bas: 0%
  Eos: 0%
  Fbg: 202 mg/dL
  Hb: 13.4 g/dL
  Ht: 40.2%
  Lym: 77.8%
  MCH: 21.8 pg
  MCHC: 33.5%
  Mono: 9.2%
  Neu: 13%
  Plat: 94.5 x10_4/uL
  RBC: 616.8 x10_4/ul
  Ret: 8.7%
  WBC: 114.5 x10_2/uL
  KIDNEY_L: 1 g
  KIDNEY_R: 1 g
  KIDNEY_TOTAL: 2 g
  LIVER: 10.1 g
  ALP: 1053.2 IU/L
  ALT: 34.4 IU/L
  AST: 64.4 IU/L
  BUN: 16 mg/dL
  CRE: 0.5 mg/dL
  Ca: 11.4 mg/dL
  Cl: 105 meq/L
  DBIL: 0.006 mg/dL
  GLC: 185.6 mg/dL
  IP: 9.4 mg/dL
  K: 5.2 meq/L
  LDH: 85 IU/L
  Na: 139 meq/L
  PL: 151.4 mg/dL
  RALB: 3.7 g/dL
  TBIL: 0.4 mg/dL
  TC: 82.8 mg/dL
  TG: 63.2 mg/dL
  TP: 5.6 g/dL
  gamma-GTP: 1.4 IU/L
[2]
  TERMINAL_BW: 200.9 g
  APTT: 16.6 s
  Bas: 0%
  Eos: 0.2%
  Fbg: 206.4 mg/dL
  Hb: 13.6 g/dL
  Ht: 40.6%
  Lym: 72%
  MCH: 21.7 pg
  MCHC: 33.4%
  Mono: 5.8%
  Neu: 22%
  Plat: 102.2 x10_4/uL
  RBC: 625.8 x10_4/ul
  Ret: 8.8%
  WBC: 95.9 x10_2/uL
  KIDNEY_L: 0.9 g
  KIDNEY_R: 1 g
  KIDNEY_TOTAL: 1.9 g
  LIVER: 9.3 g
  ALP: 862.2 IU/L
  ALT: 34.8 IU/L
  AST: 62 IU/L
  BUN: 11.4 mg/dL
  CRE: 0.5 mg/dL
  Ca: 10.7 mg/dL
  Cl: 104.8 meq/L
  DBIL: 0.036 mg/dL
  GLC: 175.2 mg/dL
  IP: 10.1 mg/dL
  K: 5.1 meq/L
  LDH: 92.4 IU/L
  Na: 137.6 meq/L
  PL: 142.8 mg/dL
  RALB: 3.7 g/dL
  TBIL: 0.3 mg/dL
  TC: 80.2 mg/dL
  TG: 47.8 mg/dL
  TP: 5.6 g/dL
  gamma-GTP: 1.4 IU/L
[3]
  TERMINAL_BW: 199.3 g
  APTT: 16.7 s
  Bas: 0%
  Eos: 0.8%
  Fbg: 205.4 mg/dL
  Hb: 13.7 g/dL
  Ht: 41%
  Lym: 68.6%
  MCH: 22.1 pg
  MCHC: 33.3%
  Mono: 6.6%
  Neu: 24%
  Plat: 103.6 x10_4/uL
  RBC: 619.2 x10_4/ul
  Ret: 8.3%
  WBC: 96.1 x10_2/uL
  KIDNEY_L: 0.9 g
  KIDNEY_R: 0.9 g
  KIDNEY_TOTAL: 1.8 g
  LIVER: 8.6 g
  ALP: 860.2 IU/L
  ALT: 32.6 IU/L
  AST: 59.8 IU/L
  BUN: 12.2 mg/dL
  CRE: 0.5 mg/dL
  Ca: 10.5 mg/dL
  Cl: 106.2 meq/L
  DBIL: 0.024 mg/dL
  GLC: 188.4 mg/dL
  IP: 10.8 mg/dL
  K: 5.1 meq/L
  LDH: 83.8 IU/L
  Na: 138 meq/L
  PL: 134.4 mg/dL
  RALB: 3.8 g/dL
  TBIL: 0.4 mg/dL
  TC: 76.8 mg/dL
  TG: 35.4 mg/dL
  TP: 5.5 g/dL
  gamma-GTP: 1.8 IU/L
[4]
  TERMINAL_BW: 214.4 g
  APTT: 16.2 s
  Bas: 0%
  Eos: 0.8%
  Fbg: 205.8 mg/dL
  Hb: 13.3 g/dL
  Ht: 39.3%
  Lym: 75.4%
  MCH: 22 pg
  MCHC: 33.9%
  Mono: 6.8%
  Neu: 17%
  Plat: 107.6 x10_4/uL
  RBC: 605.8 x10_4/ul
  Ret: 8.9%
  WBC: 82.8 x10_2/uL
  KIDNEY_L: 0.9 g
  KIDNEY_R: 1 g
  KIDNEY_TOTAL: 1.9 g
  LIVER: 10.6 g
  ALP: 1093.2 IU/L
  ALT: 43 IU/L
  AST: 64.8 IU/L
  BUN: 19.2 mg/dL
  CRE: 0.6 mg/dL
  Ca: 11 mg/dL
  Cl: 104.6 meq/L
  DBIL: 0.028 mg/dL
  GLC: 185.4 mg/dL
  IP: 8.2 mg/dL
  K: 4.9 meq/L
  LDH: 82.6 IU/L
  Na: 138.8 meq/L
  PL: 165.4 mg/dL
  RALB: 3.7 g/dL
  TBIL: 0.4 mg/dL
  TC: 87.2 mg/dL
  TG: 94.8 mg/dL
  TP: 5.7 g/dL
  gamma-GTP: 1 IU/L
3 mg/kg, 3 h, dose level Low
  TERMINAL_BW: 203.1 g
  APTT: 16.9 s
  Bas: 0%
  Eos: 0.8%
  Fbg: 205.8 mg/dL
  Hb: 13.5 g/dL
  Ht: 40.4%
  Lym: 70.4%
  MCH: 21.8 pg
  MCHC: 33.5%
  Mono: 8.2%
  Neu: 20.6%
  Plat: 101.1 x10_4/uL
  RBC: 620.8 x10_4/ul
  Ret: 8.3%
  WBC: 102.1 x10_2/uL
  KIDNEY_L: 0.9 g
  KIDNEY_R: 0.9 g
  KIDNEY_TOTAL: 1.8 g
  LIVER: 9.6 g
  ALP: 1074.8 IU/L
  ALT: 42.2 IU/L
  AST: 61.2 IU/L
  BUN: 12.6 mg/dL
  CRE: 0.5 mg/dL
  Ca: 11.1 mg/dL
  Cl: 105.2 meq/L
  DBIL: 0.028 mg/dL
  GLC: 202.8 mg/dL
  IP: 10.4 mg/dL
  K: 4.7 meq/L
  LDH: 92.6 IU/L
  Na: 139.4 meq/L
  PL: 141.2 mg/dL
  RALB: 3.6 g/dL
  TBIL: 0.3 mg/dL
  TC: 78.6 mg/dL
  TG: 41.6 mg/dL
  TP: 5.7 g/dL
  gamma-GTP: 1.4 IU/L
3 mg/kg, 6 h, dose level Low
  TERMINAL_BW: 200.5 g
  APTT: 16.6 s
  Bas: 0%
  Eos: 0.6%
  Fbg: 205.2 mg/dL
  Hb: 13.5 g/dL
  Ht: 40.5%
  Lym: 77%
  MCH: 21.7 pg
  MCHC: 33.3%
  Mono: 7.2%
  Neu: 15.2%
  Plat: 103.7 x10_4/uL
  RBC: 619.8 x10_4/ul
  Ret: 8.8%
  WBC: 90.9 x10_2/uL
  KIDNEY_L: 0.9 g
  KIDNEY_R: 0.9 g
  KIDNEY_TOTAL: 1.9 g
  LIVER: 9 g
  ALP: 897.8 IU/L
  ALT: 34.4 IU/L
  AST: 57.2 IU/L
  BUN: 9.6 mg/dL
  CRE: 0.4 mg/dL
  Ca: 10.6 mg/dL
  Cl: 105.8 meq/L
  DBIL: 0.034 mg/dL
  GLC: 184.4 mg/dL
  IP: 10.6 mg/dL
  K: 4.9 meq/L
  LDH: 81.6 IU/L
  Na: 139.2 meq/L
  PL: 142 mg/dL
  RALB: 3.6 g/dL
  TBIL: 0.3 mg/dL
  TC: 84.4 mg/dL
  TG: 32.4 mg/dL
  TP: 5.4 g/dL
  gamma-GTP: 1.6 IU/L
3 mg/kg, 9 h, dose level Low
  TERMINAL_BW: 199.3 g
  APTT: 16.8 s
  Bas: 0%
  Eos: 0.6%
  Fbg: 204.8 mg/dL
  Hb: 13.6 g/dL
  Ht: 40.5%
  Lym: 70.4%
  MCH: 22 pg
  MCHC: 33.6%
  Mono: 9.6%
  Neu: 19.4%
  Plat: 102.7 x10_4/uL
  RBC: 621.4 x10_4/ul
  Ret: 9.5%
  WBC: 60.9 x10_2/uL
  KIDNEY_L: 0.9 g
  KIDNEY_R: 1 g
  KIDNEY_TOTAL: 1.9 g
  LIVER: 8.5 g
  ALP: 810.6 IU/L
  ALT: 28.4 IU/L
  AST: 56.6 IU/L
  BUN: 10.2 mg/dL
  CRE: 0.5 mg/dL
  Ca: 10.2 mg/dL
  Cl: 106.6 meq/L
  DBIL: 0.018 mg/dL
  GLC: 183.4 mg/dL
  IP: 10.6 mg/dL
  K: 4.6 meq/L
  LDH: 84 IU/L
  Na: 139.2 meq/L
  PL: 126.6 mg/dL
  RALB: 3.6 g/dL
  TBIL: 0.4 mg/dL
  TC: 71 mg/dL
  TG: 31.2 mg/dL
  TP: 5.5 g/dL
  gamma-GTP: 1.8 IU/L
3 mg/kg, 24 h, dose level Low
  TERMINAL_BW: 213.8 g
  APTT: 15.9 s
  Bas: 0%
  Eos: 1.2%
  Fbg: 198.8 mg/dL
  Hb: 13.6 g/dL
  Ht: 40.8%
  Lym: 75.6%
  MCH: 22.6 pg
  MCHC: 33.3%
  Mono: 6%
  Neu: 17.2%
  Plat: 105.6 x10_4/uL
  RBC: 601 x10_4/ul
  Ret: 9.4%
  WBC: 75.9 x10_2/uL
  KIDNEY_L: 1 g
  KIDNEY_R: 1 g
  KIDNEY_TOTAL: 1.9 g
  LIVER: 11.3 g
  ALP: 957.8 IU/L
  ALT: 35 IU/L
  AST: 59.2 IU/L
  BUN: 21.2 mg/dL
  CRE: 0.6 mg/dL
  Ca: 11.3 mg/dL
  Cl: 105.4 meq/L
  DBIL: 0.026 mg/dL
  GLC: 180.8 mg/dL
  IP: 7.9 mg/dL
  K: 5 meq/L
  LDH: 104.8 IU/L
  Na: 139.2 meq/L
  PL: 156.6 mg/dL
  RALB: 3.8 g/dL
  TBIL: 0.4 mg/dL
  TC: 80.6 mg/dL
  TG: 102.4 mg/dL
  TP: 5.9 g/dL
